In article PMC12344683, “N-alkyl and N-benzyl indoles are anti-SARS-CoV-2 agents and nsp13 inhibitors” (Journal of Enzyme Inhibition and Medicinal Chemistry, 2025):

Columns and labels:
SARS-CoV-2 nsp13 [1] = biological target: T1, SARS-CoV-2 nsp13 (Severe acute respiratory syndrome coronavirus 2, UniProt P0DTD1); test: SARS-CoV-2 nsp13 unwinding-associated activity (fluorescence, BSA-TCEP); type: biochemical; conditions: for IC50: SARS-CoV-2 nsp13-associated unwinding activity, from dose-response curves; for remaining activity at 30 µM: read-out: Percentage of enzymatic residual activity (unwinding)
SARS-CoV-2 nsp13 [2] = biological target: T1, SARS-CoV-2 nsp13; test: SARS-CoV-2 nsp13 ATPase-associated activity (Biomol Green, BSA-TCEP); type: biochemical; conditions: for IC50: SARS-CoV-2 nsp13-associated ATPase activity, from dose-response curves; for remaining activity at 30 µM: read-out: Percentage of enzymatic residual activity (ATPase)
[3] = Cellular toxicity assay (GFP signal as viability); type: cell-based; conditions: African green monkey; Vero cells; read-out: CC50, concentration required to reduce Vero cells viability by 50%
Description: Vero E6-green fluorescent protein (GFP) cells (Janssen Pharmaceutical were maintained in Dulbecco’s modified Eagle’s medium (DMEM, Gibco) supplemented with 10% v/v foetal beef serum (FBS, Gibco), 0.075% Sodium Bicarbonate (7.5% solution, Gibco) and 1X Pen-strep (Euroclone) and kept under 5% CO2 on 37 ◦C. The cells were seeded at 10 000 cells/well in 96-well black cell-treated plates (PerkinElmer). The following day, cells were incubated with the control compounds at different concentrations. Compound was dissolved in 0.1% DMSO. Seventy-two hours post infection the GPF signal, as direct index of cellular viability, was quantified by measuring the total-well fluorescence with a Victor 3 multiplate reader (PerkinElmer) set to excitation and emission wavelengths of 485 and 535 nm, respectively.
The percentage of induced cytopathic effects (CPE) was calculated considering the mock as 100% of cell viability, and the readout from empty wells as blank. The compound half-maximal cytopathic concentration (CC50), was determined via non-linear regression by using on Prism 9 v. 9.4.1 software (GraphPad) the built-in function dose-response inhibition, log-concentration-normalized response. Experimental points represent the average and standard deviation of at least two sets of independent triplicates.

[4] = read-out: Activity in enzyme assay IC50 Unwinding BSA-TCEP
[5] = read-out: Activity in enzyme assay IC50 ATPase BSA-TCEP
[6] = Activity in enzyme assay IC50 Unwinding BSA-TCEP
[7] = Activity in enzyme assay IC50 ATPase BSA-TCEP

Row | Compound | IC50 (SARS-CoV-2 nsp13 [1]; [4]) [µM] | IC50 (SARS-CoV-2 nsp13 [2]; [5]) [µM] | IC50 (SARS-CoV-2 nsp13 [1]; [6]) [µM] | IC50 (SARS-CoV-2 nsp13 [2]; [7]) [µM] | other results
1 | CCOC(=O)/C(O)=C/C(=O)/C=C/c1cn(Cc2ccc(OC(F)(F)F)cc2)c2ccccc12 [6e] | 5.66 ± 0.21 | 2.17 ± 0.26 | – | – | CC50 at 72 h [3]: > 100 µM
2 | CCOC(=O)/C(O)=C/C(=O)/C=C/c1cn(Cc2ccc(C)cc2)c2ccccc12 [6b] | 7.34 ± 1.81 | 2.88 ± 0.59 | – | – | –
3 | Cc1ccc(Cn2cc(/C=C/C(=O)/C=C(\O)C(=O)O)c3ccccc32)cc1 [5b] | 13.6 ± 1.96 | 3.83 ± 0.45 | – | – | –
4 | CCOC(=O)/C(O)=C/C(=O)c1cn(Cc2ccccc2)c2ccccc12 [8j, Ethyl (Z)-4-(1-benzyl-1H-indol-3-yl)-2-hydroxy-4-oxobut-2-enoate] | – | – | 26 ± 0.89 | 14.5 ± 1.49 | –
5 | CCOC(=O)/C(O)=C/C(=O)/C=C/c1cn(CC)c2ccccc12 [10d] | 11.8 ± 4.03 | 18.5 ± 0.65 | – | – | –
6 | C/C=C/Cn1cc(/C=C/C(=O)/C=C(\O)C(=O)O)c2ccccc21 [9a, (2Z,5E)-6-(1-((E)-but-2-en-1-yl)-1H-indol-3-yl)-2-hydroxy-4-oxohexa-2,5-dienoic acid] | 19.4 ± 3.7 | > 30 | – | – | remaining activity at 30 µM (SARS-CoV-2 nsp13 [2]; measured at 30 µM): 70%
7 | CCOC(=O)/C(O)=C/C(=O)/C=C/c1cn(Cc2ccc(C#N)cc2)c2ccccc12 [6g, Ethyl (2Z,5E)-6-(1-(4-cyanobenzyl)-1H-indol-3-yl)-2-hydroxy-4-oxohexa-2,5-dienoate] | 6.76 ± 1.18 | 6.24 ± 0.24 | – | – | –
8 | CCOC(=O)/C(O)=C/C(=O)/C=C/c1cn(Cc2ccc(F)cc2)c2ccccc12 [6d, Ethyl (2Z,5E)-6-(1-(4-fluorobenzyl)-1H-indol-3-yl)-2-hydroxy-4-oxohexa-2,5-dienoate] | 3.64 ± 0.11 | 3.22 ± 0.14 | – | – | –
9 | O=C(O)/C(O)=C/C(=O)c1cn(Cc2ccc(F)cc2)c2ccccc12 [7d, (Z)-4-(1-(4-fluorobenzyl)-1H-indol-3-yl)-2-hydroxy-4-oxobut-2-enoic acid] | – | – | > 30 | > 30 | remaining activity at 30 µM (SARS-CoV-2 nsp13 [1]): 50%; remaining activity at 30 µM (SARS-CoV-2 nsp13 [2]): 70%
10 | CC[C@@]1(O)C(=O)OCc2c1cc1n(c2=O)Cc2cc3ccccc3nc2-1 [Camptothecin, reference compound] | – | – | – | – | CC50 at 72 h [3]: 11.1 ± 0.16 µM
11 | CCOC(=O)/C(O)=C/C(=O)c1cn(Cc2ccc(OC)cc2)c2ccccc12 [8a] | – | – | 13.1 ± 1.78 | 8.06 ± 1.78 | –
12 | O=C(O)/C(O)=C/C(=O)c1cn(Cc2ccccc2)c2ccccc12 [7j, (Z)-4-(1-benzyl-1H-indol-3-yl)-2-hydroxy-4-oxobut-2-enoic acid] | – | – | 30 ± 1.5 | 10.3 ± 1.75 | –
13 | CCOC(=O)/C(O)=C/C(=O)/C=C/c1cn(C=C(C)C)c2ccccc12 [10c, Ethyl (2Z,5E)-2-hydroxy-6-(1-(2-methylprop-1-en-1-yl)-1H-indol-3-yl)-4-oxohexa-2,5-dienoate] | 19.3 ± 0.76 | 4.93 ± 1.4 | – | – | –
14 | CC(C)CCn1cc(/C=C/C(=O)/C=C(\O)C(=O)O)c2ccccc21 [9f, (2Z,5E)-2-hydroxy-6-(1-isopentyl-1H-indol-3-yl)-4-oxohexa-2,5-dienoic acid] | 15.9 ± 0.59 | 23.1 ± 1.41 | – | – | –
15 | CCOC(=O)/C(O)=C/C(=O)/C=C/c1cn(Cc2ccc(C(C)C)cc2)c2ccccc12 [6c] | 5.81 ± 0.47 | 5.8 ± 0.12 | – | – | –
16 | CC(C)c1ccc(Cn2cc(C(=O)/C=C(\O)C(=O)O)c3ccccc32)cc1 [7c] | – | – | 14.1 ± 0.48 | 13 ± 1.08 | –
17 | O=C(/C=C(\O)C(=O)O)/C=C/c1cn(Cc2ccc(O)cc2)c2ccccc12 [5h, (2Z,5E)-2-hydroxy-6-(1-(4-hydroxybenzyl)-1H-indol-3-yl)-4-oxohexa-2,5-dienoic acid] | 2.77 ± 0.42 | 9.1 ± 3.4 | – | – | –
18 | COc1ccc(Cn2cc(C(=O)/C=C(\O)C(=O)O)c3ccccc32)cc1 [7a] | – | – | > 30 | > 30 | remaining activity at 30 µM (SARS-CoV-2 nsp13 [1]): 50.4%; remaining activity at 30 µM (SARS-CoV-2 nsp13 [2]): 73.4%
19 | CCOC(=O)/C(O)=C/C(=O)c1cn(Cc2ccc(C(C)C)cc2)c2ccccc12 [8c] | – | – | 9.66 ± 2.89 | 9.64 ± 2.27 | –
20 | CCOC(=O)/C(O)=C/C(=O)c1cn(Cc2ccc(OC(F)(F)F)cc2)c2ccccc12 [8e] | – | – | 11.3 ± 0.65 | 2.29 ± 0.02 | –
